This series is described as follows: Dissolution of ASA together with sodium carbonate (one component) in 15 ml pure water in two-component device. It is filed as physicochemical. The method, then: In the following example ASA and the disodium salt of carbonic acid (Na2CO3) are dissolved at the same time in 15 ml pure water.
300 mg ASA and 258-263 mg sodium carbonate (Na2CO3) were placed together in the powder compartment of the test device used in example 1, and 15 ml of pure water was filled into the container (bottle) of said device. After releasing the ASA and sodium carbonate into the water, the solution was shaken until all ASA was dissolved.

SMILES strings stand for the structures.

Take `CC(=O)Oc1ccccc1C(=O)O` [ASA, acetylsalicylic acid]: the “pH of the solutions after dissolution of ASA and the carbonate salt” value (300 mg ASA and 258-263 mg Na2CO3, 15 ml pure water) is recorded as 9.41-9.43. For the same compound, for the setting “300 mg ASA and 258-263 mg Na2CO3 together as powder, 15 ml pure water”, the “Time before ASA was dissolved” value is reported as “approx. 120 sec”.

Values taken from patent US11850253B2, “Two component compositions” (Asamedic AS, priority 2017, dated 2023).
